# Measured values as given in patent publication EP0444546B1, “Hydantoin derivatives for use as hypoglycemic and/or hypolipidemic agents” (MOCHIDA PHARMACEUTICAL CO., LTD., priority 1990, dated 1991).
# “Also recorded” adds a separate entry of the source.
# What was measured:
# [1] = test system: streptozotocin-diabetic rats; assay: Hypoglycemic effects in streptozotocin-diabetic rats; format: in vivo, male Wistar rats
# Description: (§1) Four days later, the rats with serum glucose levels of between 400 and 500 mg/dl were used. After being fasted for 4 hrs, groups of 5 diabetic rats were orally administered with the compounds of the present invention or gliclazide in a dose of 100 mg/kg. Blood samples were collected from the orbital vein before and 6 hrs after the administration. Serum glucose levels were determined by the enzymatic methods with an autoanalyzer (Cobas Fara ® , Roche).
# ICR strain mice = assay: Acute toxicity in mice; format: in vivo; conditions: oral dose of 1 g/kg, one-week period after the administration
# Source text: Hydantoin derivatives of the present invention were examined for acute toxicity.
# [2] = test system: streptozotocin - diabetic rats; assay: Hypolipidemic effects in streptozotocin-diabetic rats; format: in vivo; conditions: STZ-diabetic rats; for Lowering rate of serum lipids (%) CHOL / Lowering rate of serum lipids (%) NEFA / Lowering rate of serum lipids (%) TG: 100 mg/kg orally for 2 weeks; for Lowering rate of serum lipids (%) CHOL: serum cholesterol 6 hrs after the last administration; for Lowering rate of serum lipids (%) NEFA: serum non-esterified fatty acid 6 hrs after the last administration; for Lowering rate of serum lipids (%) TG: serum triglyceride 6 hrs after the last administration
# Description: as §1, with “Diabetic rats were produced according to the method of Junod et al. (A. Junod et al., J. Clin. Invest., 48, 2129 (1969)). Briefly, male Wistar rats were given 26.5 mg/kg of streptozotocin (STZ) intravenously. Four” for “Four”
# (§2) Diabetic rats were produced according to the method described previously. Groups of 5 diabetic rats were orally administered with compound 20 or 23 of the present invention at a dose of 100 mg/kg for 2 weeks. The rats were deprived of food 4 hrs before the last administration, and 6 hrs after the last administration, blood samples were collected from the orbital vein. Serum triglyceride (TG), non - esterified fatty acid (NEFA) and cholesterol (CHOL) levels were determined by the enzymatic method with an autoanalyzer (Cobas Fara ® , Roche). In this experiment, each parameters of serum lipids in streptozotocin - diabetic rats increased by 40 % of normal rats in the mean value.
# normal rats = assay: Hypoglycemic effects in normal rats; format: in vivo, male Wistar rats
# Description: Groups of 5 male Wistar rats, after being fasted for 4 hrs, were orally administered with compound 20 or 23 of the present invention or gliclazide. Blood samples were collected from the orbital vein before, 1 hr and 6 hrs after the administration. Serum glucose levels were determined by the enzymatic method with an autoanalyser (Cobas Fara ® , Roche).
# [3] = test system: streptozotocin-diabetic rats; assay: Ketone body lowering effects in streptozotocin-diabetic rats; format: in vivo; conditions: STZ-diabetic rats; for Lowering rate of serum total ketone body (%): 100 mg/kg orally for 2 weeks, blood 6 hrs after the last administration
# Description: as §1, with “Diabetic rats were produced according to the method of Junod et al. (A. Junod et al., J. Clin. Invest., 48, 2129 (1969)). Briefly, male Wistar rats were given 26.5 mg/kg of streptozotocin (STZ) intravenously. Four” for “Four”
# as §2, with “invention” for “invention at a dose of 100 mg/kg”, “total ketone body (KB)” for “triglyceride (TG), non - esterified fatty acid (NEFA) and cholesterol (CHOL)”, “experiment,” for “experiment, each parameters of”, “total ketone body levels” for “lipids”, “92” for “40”
# [4] = 100 mg/kg p.o., 1 hour after administration
# [5] = 100 mg/kg p.o., 6 hours after administration
compound,measurement,setting,value
1-(benzo[b]isothiazol-3-ylsulfonyl)hydantoin [Compound 15],Lowering rate of serum glucose (%),"[1]; STZ-diabetic rats fasted 4 hrs, 100 mg/kg orally, 6 hrs after administration vs before",23.6%
"O=C1CN(S(=O)(=O)c2cc3ccc(Cl)cc3cc2Cl)C(=O)N1 [Compound 2, 1-(3,6-dichloronaphthalen-2-ylsulfonyl)hydantoin]",acute toxicity,ICR strain mice,no change was observed
"O=C1CN(S(=O)(=O)c2cc3ccccc3s2)C(=O)N1 [Compound 8, 1-(benzo[b]thien-2-ylsulfonyl)hydantoin]",acute toxicity,ICR strain mice,no change was observed
"O=C1CN(S(=O)(=O)c2cc3ccccc3o2)C(=O)N1 [Compound 9, 1-(benzo[b]furan-2-ylsulfonyl)hydantoin]",acute toxicity,ICR strain mice,no change was observed
"O=C1CN(S(=O)(=O)c2cc(Cl)sc2Cl)C(=O)N1 [Compound 16, 1-(2,5-dichlorothien-3-ylsulfonyl)hydantoin]",acute toxicity,ICR strain mice,no change was observed
"O=C1CN(S(=O)(=O)c2oc3ccccc3c2Br)C(=O)N1 [Compound 20, 1-(3-bromobenzo[b]furan-2-ylsulfonyl)hydantoin]","lowering of serum triglyceride, non - esterified fatty acid and cholesterol levels (in words)",[2],lowering activities
same,Lowering rate of serum lipids (%) CHOL,[2],31%
same,Lowering rate of serum lipids (%) NEFA,[2],35%
same,Lowering rate of serum lipids (%) TG,[2],36%
same,acute toxicity,ICR strain mice,no change was observed
same,influence on serum glucose level of normal rats (in words),normal rats,lesser influences
same,Lowering rate of serum glucose (%),normal rats; [4],13%
same,Lowering rate of serum glucose (%),normal rats; [5],6%
same,lowering of serum total ketone body levels (in words),[3],lowering activity
same,Lowering rate of serum total ketone body (%),[3],50%
"O=C1CN(S(=O)(=O)c2oc3ccccc3c2Cl)C(=O)N1 [Compound 23, 1-(3-chlorobenzo[b]furan-2-ylsulfonyl)hydantoin]","lowering of serum triglyceride, non - esterified fatty acid and cholesterol levels (in words)",[2],lowering activities
same,Lowering rate of serum lipids (%) CHOL,[2],30%
same,Lowering rate of serum lipids (%) NEFA,[2],18%
same,Lowering rate of serum lipids (%) TG,[2],43%
same,acute toxicity,ICR strain mice,no change was observed
same,influence on serum glucose level of normal rats (in words),normal rats,lesser influences
same,Lowering rate of serum glucose (%),normal rats; [4],9%
same,Lowering rate of serum glucose (%),normal rats; [5],0%
same,lowering of serum total ketone body levels (in words),[3],lowering activity
same,Lowering rate of serum total ketone body (%),[3],43%
"Cc1ccc(S(=O)(=O)NC(=O)NN2CC3CCCC3C2)cc1 (centres unmarked) [Compound A, gliclazide, reference compound]",influence on serum glucose level of normal rats (in words),normal rats,significantly lowered; also recorded: remarkable hypoglycemic activity
same,Lowering rate of serum glucose (%),"normal rats; 10 mg/kg p.o., 1 hour after administration",57%
same,Lowering rate of serum glucose (%),"normal rats; 10 mg/kg p.o., 6 hours after administration",1%
same,hypoglycemic activity (in words),[1]; STZ-diabetic rats / experimental animal model of diabetes mellitus,less potent hypoglycemic activity than all compounds of the present invention
